# Results taken from US20200230136A1, “SELECTIVE ADRENORECEPTOR ALPHA2C RECEPTOR ANTAGONISTS ALONE, OR IN COMBINATION WITH CHYMASE INHIBITORS FOR USE IN THE TREATMENT AND/OR PROPHYLAXIS OF PERIPHERAL ARTERY DISEASES (PAD)” (Bayer Aktiengesellschaft, priority 2017, published 2020).
# Tests used:
# Format in all cases: in vivo
# [1] = system: full-thickness wounds in STZ-challenged minipigs; assay: Wound healing in streptozotocin (STZ)-challenged minipigs
# Procedure: Wounds (twelve 15.15-mm full-thickness wounds) were induced in STZ-challenged minipigs. STZ challenge (160 mg/kg) was performed 14 days before wounding in 15 animals, two out of 15 animals had to be sacrificed due to blood glucose instability. The remaining 13 animals (body weight around 25 kg: 27.92±2.35 kg on the day of STZ dosing, Day 0: 24.35±2.14 kg and Day 17: 23.27±2.24 kg) were randomized to 3 groups:
# Group I) placebo: Animal 1, 8, 10 and 13; Group II) 0.6 mg/kg Compound of Ex 8: Animal 2, 7, 11 and 12; Group III) 0.1 mg/kg Compound of Ex. 8: Animal 3, 4, 6, 14 and 15
# Oral gavage was done by gelatin capsules containing Compound of Ex. 8 or lactose as placebo (25 kg body weight was assumed for all animals).
# Topical treatment was performed using Compound of Ex. 8 in a concentration of 0.06 mg/mL in a Pluronic® gel matrix or as placebo Pluronic® gel at a volume of 1 mL per wound. The whole study was performed in a blinded manner. The 12 wounds per animal were treated according to Table 1 to combine oral treatment with and without topical treatment in this study. Wounds were closed by a sterile reclosable bag system. Animals were treated orally BID for 17 days starting after wounding (Day 0) and topically once daily on Days 0, 2, 5, 8, 11 and 14. On Day 17, wounds were harvested and animals sacrificed.
# The primary endpoint of this study was wound size over study time. Wound size was evaluated via photographs and evaluated by photoshop under blinded conditions. Wound size was shown in absolute numbers as well as percent size vs. wound size on Day 0. In addition, re-epithelialization as well as wound contracture were determined The mean of all 12 wounds per animal was compared to Day 0. […] Between Day 5 and Day 11, a differentiation between the animals was observed.
# [2] = system: ischemic wounds in New Zealand white rabbits; assay: Wound healing in the ischemic rabbit ear model
# Procedure: Ischemic wounds (three 7 mm full-thickness dermal punches on the inner surface of both ears) were induced in New Zealand white rabbits. Oral gavage was done through a nasogastric tube or catheter. 20 rabbits were treated with Compound of Ex. 8 (0.3 mg/kg; n=10) or vehicle (10% ethanol, 30% PEG 400, 60% tap water, n=10) through the catheter daily at multiple time points [post-wounding days (POD) 3, 4, 5, 6 and 7]. Wounds were harvested on POD 10. For histologic analysis, one-half of wounds including the surrounding normal skin in rectangular shape was taken. One-half of the wound was frozen for further molecular analysis. Tissues underwent routine processing, paraffin embedding, and sectioning. A 4 μm cross section through the center of each rectangular biopsy was taken. The tissues were stained with hematoxylin and eosin and examined under light microscopy. Several histomorphometric measurements were determined, using a digital image analysis system (NIS-Elements Basic Research; Nikon Instech Co, Kanagawa, Japan) at 2 fold and 10 fold magnification. Each parameter was measured in a blinded manner.
# In addition, tissue oxygen tension and blood flow were examined by the OxyLite® system (Oxford Optronix). Oxygen tension and blood flow were measured on POD 3, 7 and 10 in each rabbit. The oxygen tension unit is mmHg and the blood flow unit is blood PUs. The results were presented as ratio of O2-ischemia/O2-non-ischemia, or flow-ischemia/flow-non-ischemia. Analysis was performed by comparison between control and treatment groups on POD 3, 7 and 10.
# [3] = system: diabetic ZDF fa/fa rats, ligature of the left iliac artery; assay: Effects on ankle-brachial index in ZDF rats (unilateral hindlimb ischemia model)
# Procedure: Compound of Ex. 8 induced a 10 to 30% improvement in the perfusion index (FIG. 7). […] Corresponding plasma concentrations were measured between 4 and 47 μg/L.
# FIG. 6: Effects of Compound of Ex. 8 on perfusion pressure indices. Shown are baseline value (Od) as well as perfusion pressure indices after ligature of the left iliac artery and 2 weeks of daily treatment (14 d) with Compound of Ex. 8 in diabetic ZDF fa/fa rats (raw data; 10 animals) • Student t-test, Compound of Ex. 8 versus vehicle; ZDF=Zucker diabetic fatty
# FIG. 7: Percent change in perfusion pressure indices by Compound of Ex. 8 after 14 days (14 d) of daily treatment compared to baseline values (mean±SEM; 10 animals) • SEM=standard error of mean; ZDF=Zucker diabetic fatty
# [4] = system: atherosclerotic ApoE-/- mice, hindlimb ischemia; assay: Effects on running distance in apolipoprotein E knockout mice after hindlimb ischemia
# Procedure: To evaluate effects more closely, the percent change in running distance compared to the run-in values (2 week run-in period before ligature) of all animals were analyzed.
# FIG. 8: Effects of Compound of Ex. 8 on daily running distance in atherosclerotic ApoE-/- mice before and after induction of bilateral hindlimb ischemia (mean±SEM; 10 to 11 animals) • ApoE-/-=apolipoprotein E knockout; Ctrl.=control; SEM=standard error of mean
# [5] = 0.6 mg treated wounds vs placebo
compound,measurement,setting,value
"O=C(c1cnc(N2CC3(COC3)C2)nc1)N1CCC(N2CCc3ccccc3C2)CC1 [Compound of Ex. 8, [4-(3,4-Dihydroisoquinolin-2(1H)-yl)piperidin-1-yl][2-(2-oxa-6-azaspiro[3.3]hept-6-yl)pyrimidin-5-yl]methanone]","wound size, wounds without topical treatment (Wounds 1 to 6)","[1]; 0.1 mg/kg oral BID vs placebo, Day 2 (P=0.011) and Day 5 (P=0.014)",significant improvement vs. placebo
same,wound contracture,"[1]; 0.1 mg/kg oral BID, Day 2, 5, 8, 11 and 17",improvement in wound contracture being significant
same,course of wound healing (variability),"[1]; 0.1 mg/kg oral BID, between Day 5 and Day 11",greater heterogeneity
same,histology: cell proliferation,[1]; [5],reduced cell proliferation
same,histology: collagen III/I ratio,[1]; [5],lower collagen III/I ratio
same,histology: detectable vessels,[1]; [5],more detectable vessels
same,histology: differentiation level of the epidermis,[1]; [5],increased differentiation level of the epidermis
same,histology: inflammation,[1]; [5],reduced inflammation
same,histology: re-epithelialization level,[1]; [5],higher re-epithelialization level
same,histology: structuring of basement membranes defined by laminin detection,[1]; [5],increased structuring of basement membranes
same,histological evaluation of wound healing,"[1]; 0.6 mg treated wounds vs placebo, wounds harvested Day 17",more advanced wound healing
same,"wound size over time, mean of all wounds","[1]; 0.6 mg/kg oral BID 17 days vs placebo, all 12 wounds per animal, all days (FIG. 1)",significantly improved wound healing
same,"wound size, wounds without topical treatment (Wounds 1 to 6)","[1]; 0.6 mg/kg oral BID vs placebo, all values (FIG. 2)",significantly better compared to the placebo group
same,wound contracture,"[1]; 0.6 mg/kg oral BID, Day 2, 5, 8 and 11",improvement in wound contracture being significant
same,"difference in wound size vs placebo, wounds without topical treatment (Wounds 1 to 6)","[1]; 0.6 mg/kg oral BID, Day 8",about 21.6%
same,re-epithelialization,"[1]; 0.6 mg/kg oral BID, Day 17, two animals of the group",complete and stable re-epithelialization
same,speed of wound healing,"[1]; 0.6 mg/kg oral BID, between Day 5 and Day 11, vs placebo and 0.1 mg/kg groups",quicker wound healing compared to the 2 other groups
same,"wound size, wounds without topical treatment (Wounds 1 to 6), dose comparison","[1]; 0.6 mg/kg vs 0.1 mg/kg group, Days 8, 11, 14 and 17",significantly better compared to the 0.1 mg/kg group
same,granulation area,"[2]; 0.3 mg/kg oral, POD 3-7, wounds harvested POD 10, P=0.07 vs control","133,630+20,208 μm^2"
same,epithelial gap,"[2]; 0.3 mg/kg oral, POD 3-7, wounds harvested POD 10, no significant difference vs control","5,212+213 μm"
same,blood flow ratio (flow-ischemia/flow-non-ischemia),"[2]; 0.3 mg/kg, POD 10, P=0.018 vs control",0.495
same,oxygen tension ratio (O2-ischemia/O2-non-ischemia),"[2]; 0.3 mg/kg, POD 10, P=0.079 vs control",0.238
same,change in blood flow ratio from POD 3 to POD 10,"[2]; 0.3 mg/kg, same rabbit, P=0.108 vs control",0.149
same,change in oxygen tension ratio from POD 3 to POD 10,"[2]; 0.3 mg/kg, same rabbit, P=0.322 vs control",0.082
same,perfusion pressure,"[3]; 0.3 mg/kg (most effective dose), 14 d daily treatment",significant increase in perfusion pressure
same,muscle function in the ligated limb,"[3]; 0.1, 0.3 and 1 mg/kg",slight tendency toward improved muscle function
same,perfusion indices,"[3]; 0.1, 0.3 and 1 mg/kg, 2 weeks of daily treatment (FIG. 6)",increase in perfusion indices at all doses
same,"total running distance, percent change vs run-in values",[4]; 10 μg/ml (FIG. 9),tendency toward an improvement
same,"running distance, area under the curve from Day 0 to Day 28",[4]; 30 μg/kg vs placebo,significant improvements compared to placebo
same,"running distance, percent change vs run-in values","[4]; 30 μg/kg, several days during the 4 week observation period (FIG. 10)",significant improvement in running distance
same,"running distance, area under the curve from Day 0 to Day 28",[4]; 100 μg/kg vs placebo,significant improvements compared to placebo
same,"running distance, percent change vs run-in values","[4]; 100 μg/kg, several days during the 4 week observation period (FIG. 11)",significant improvement in running distance
same,running distance,"[4]; oral administration of 10, 30 and 100 μg/mL, after induction of hindlimb ischemia (FIG. 8)",increase in running distance
